Data on 28 molecules can be found in patent publication EP4782453A1 (Beyang Therapeutics Co., Ltd., priority 2023, dated 2025).

Structures are written as SMILES.

One experiment concerns the target T1, Menin-MLL (Homo sapiens, UniProt O00255).
T1 construct: His-Menin (M1-L615 end); purchased BIORTUS BP9210
T1 sequence (O00255 1-615 isoform O00255-1): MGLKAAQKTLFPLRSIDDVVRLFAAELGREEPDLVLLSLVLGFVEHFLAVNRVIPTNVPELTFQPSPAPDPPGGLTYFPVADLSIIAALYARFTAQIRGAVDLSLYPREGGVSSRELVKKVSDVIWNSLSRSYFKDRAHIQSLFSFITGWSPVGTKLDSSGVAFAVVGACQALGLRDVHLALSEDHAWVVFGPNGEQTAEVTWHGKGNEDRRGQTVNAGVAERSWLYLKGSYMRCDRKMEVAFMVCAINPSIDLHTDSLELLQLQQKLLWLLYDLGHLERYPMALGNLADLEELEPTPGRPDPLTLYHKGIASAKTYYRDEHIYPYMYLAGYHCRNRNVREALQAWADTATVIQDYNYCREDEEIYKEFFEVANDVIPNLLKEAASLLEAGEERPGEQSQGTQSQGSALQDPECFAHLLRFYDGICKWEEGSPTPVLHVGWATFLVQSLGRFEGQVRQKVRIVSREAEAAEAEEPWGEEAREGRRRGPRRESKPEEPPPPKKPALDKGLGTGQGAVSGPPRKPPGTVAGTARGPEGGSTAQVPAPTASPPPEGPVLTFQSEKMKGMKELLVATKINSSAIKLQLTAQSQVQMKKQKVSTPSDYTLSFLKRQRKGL
Put plainly: Inhibitory activity against Menin-MLL binding (fluorescence polarization). To be noted: Menin-MLL IC50, fluorescence polarization; 150 nM His-Menin, 15 nM FITC-MLL; 25°C for 60 min. An outline of the steps: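 Fluorescence polarization competition: compound and 150 nM His-tagged menin (residues M1-L615) sit 15 min at 25 °C in pH 7.5 HEPES buffer with NaCl, DTT and BSA; 15 nM FITC-labelled MLL peptide then binds for 60 min. IC50 fitted sigmoidally from mP values, duplicate wells.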
Background: Polarisation of emitted light reports the rotation of a fluorescent probe.
In the case of `CCN(C(=O)c1cc(F)ccc1-c1cc(C2CCN(C[C@H]3CC[C@H](NS(=O)(=O)CC)CC3)C2)cn2c(C3CC3)ncc12)C(C)C` (stereo partly shown) [Compound 69, 2-[3-cyclopropyl-6-(1-{[(1r,4r)-4-ethanesulfonamidocyclohexyl]methyl}pyrrolidin-3-yl)imidazo[1,5-a]pyridin-8-yl]-N-ethyl-5-fluoro-N-(isopropyl)benzamide], the IC50 (as a rule, the concentration that inhibits the measured activity by half) worked out at 222 nM.
The same measure, in the same setting: under `Cc1nc(F)c2c(-c3ccc(F)cc3C(=O)N3CCOCC3C)cc(C3CN(C(C)C4CCN(C(=O)C5CC5F)CC4)C3)cn12` (stereo not shown) [Example 301] stands 9 nM.
Same read-out and setting: under `CNC(=O)[C@H]1CC[C@H](CN2CC(c3cc(-c4ccc(F)cc4C(=O)N4CCOC[C@H]4C)c4c(F)nc(C)n4c3)C2)CC1` [Example 237, (1r,4r)-4-{[3-(1-fluoro-8-{4-fluoro-2-[(3R)-3-methylmorpholin-4-carbonyl]phenyl}-3-methylimidazo[1,5-a]pyridin-6-yl)azacyclobutan-1-yl]methyl}-N-methylcyclohexan-1-formamide] stands 34 nM; under `CCN(C(=O)c1cc(F)ccc1-c1cc(C2=CCN(C(=O)C3NC4CCC3CC4)CC2)c2ccncn12)C(C)C` [Example 113, N-ethyl-5-fluoro-N-(isopropyl)-2-(5-{1-[(1R,3S,4S)-2-azabicyclo[2.2.2]octan-3-carbonyl]-1,2,3,6-tetrahydropyridin-4-yl}pyrrolo[1,2-c]pyrimidin-7-yl)benzamide], 201 nM; under `CCN(C(=O)c1cc(F)ccc1-c1cc([C@@H]2CCN(C[C@H]3CC[C@H](NS(=O)(=O)CC)CC3)C2)nc2c1cnn2C)C(C)C` [Example 11-1], 744 nM.
The same measure, in the same setting: under `CCN(C(=O)c1cc(F)ccc1-c1cc(C2CN([C@H](CCCN3CCN4C(=O)OCC4(CO)C3)C(C)C)C2)cn2c(C)ncc12)C(C)C` (stereo partly drawn) [Example 484, 2-(6-{1-[(3R)-6-[8^a-(hydroxymethyl)-3-oxo-hexahydro-1H-[1,3]oxazolo[3,4-a]pyrazin-7-yl]-2-methylhexan-3-yl]azacyclobutan-3-yl}-3-methylimidazo[1,5-a]pyridin-8-yl)-N-ethyl-5-fluoro-N-(isopropyl)benzamide] stands 4.2 nM.

The same experiment, now with this note: fluorescence polarization; 150 nM His-Menin, 15 nM FITC-MLL; 25°C for 60 min; read-out: Menin-MLL IC50.
Take `COC1CCN(CCC[C@@H](C(C)C)N2CC(c3cc(-c4ccc(F)cc4C(=O)N4CCOC[C@H]4C)c4cnn(C)c4c3)C2)CC1` [Example 181-1, 4-{4-fluoro-2-[(3R)-3-methylmorpholin-4-carbonyl]phenyl}-6-{1-[(3S)-6-(4-methoxypiperidin-1-yl)-2-methylhexan-3-yl]azacyclobutan-3-yl}-1-methyl-1H-indazole]: the IC50 was found to be 621 nM.
Same read-out and setting: under `CCN(C(=O)c1cc(F)ccc1-c1cc(C2CN([C@@H](C)C3CCN(C(=O)NC)CC3)C2)cn2c(C)nc(F)c12)C(C)C` [Example 283-2] stands 2 nM; under `Cc1nc(F)c2c(-c3ccc(F)cc3C(=O)N3CCOC[C@H]3C)cc(C3CN(CC4CCN(S(C)(=O)=O)CC4)C3)cn12` [Example 273], 44 nM; under `COCCN(C)CCCC(C(C)C)N1CC(c2cc(-c3ccc(F)cc3C(=O)N(CC(F)F)C(C)C)c3cnccn23)C1` (stereo not shown) [Example 147, N-(2,2-difluoroethyl)-5-fluoro-2-[6-(1-{6-[(2-methoxyethyl)(methyl)amino]-2-methylhexan-3-yl}azacyclobutan-3-yl)pyrrolo[1,2-a]pyrazin-8-yl]-N-(isopropyl)benzamide], 140 nM.
The same measure, in the same setting: under `CCNC(=O)N1CCC([C@@H](C)N2CC(c3cc(-c4ccc(F)cc4C(=O)N(CC)C(C)C)c4c(F)nc(C)n4c3)C2)CC1` [Example 282-1, N-ethyl-4-[(1R)-1-[3-(8-{2-[ethyl(isopropyl)aminoformyl]-4-fluorophenyl}-1-fluoro-3-methylimidazo[1,5-a]pyridin-6-yl)azacyclobutan-1-yl]ethyl]piperidin-1-formamide] stands 9 nM; under `Cc1nc(F)c2c(-c3ccc(F)cc3C(=O)N3CCOCC3C)cc(C3CN(C(C)C4CCN(C(=O)CC#N)CC4)C3)cn12` (stereo not shown) [Example 263-1], 74 nM.
Take `CC(=O)N1CCC([C@H](C(C)C)N2CC(c3cc(-c4ccc(F)cc4C(=O)N4CCOC[C@H]4C)c4c(F)nc(C)n4c3)C2)CC1` [Example 357-1, 1-{4-[(1S)-1-[3-(1-fluoro-8-{4-fluoro-2-[(3R)-3-methylmorpholin-4-carbonyl]phenyl}-3-methylimidazo[1,5-a]pyridin-6-yl)azacyclobutan-1-yl]-2-methylpropyl]piperidin-1-yl}ethan-1-one]: the 50% inhibitory concentration (IC50) amounted to 15.5 nM.
`Cc1nc(F)c2c(-c3ccc(F)cc3C(=O)N3CCOC[C@H]3C)cc(C3CN(CC4CCN(C(=O)C5(C#N)CC5)CC4)C3)cn12` [Example 254]: the IC50 amounted to 48 nM.
The same measure, in the same setting: under `CCN(C(=O)c1cc(F)ccc1-c1cc(C2CN([C@H](CCCN3CCC[C@H](O)C3)C(C)C)C2)cn2c(C)ncc12)C(C)C` [Example 327] stands 1.8 nM; under `CCN(C(=O)c1cc(F)ccc1-c1cc(N2CCN(C(=O)[C@@H]3CCCN3)CC2)c(Cl)n2c(C)ncc12)C(C)C` [Example 115, 2-(5-chloro-3-methyl-6-{4-[(2S)-pyrrolidin-2-carbonyl]piperazin-1-yl}imidazo[1,5-a]pyridin-8-yl)-N-ethyl-5-fluoro-N-(isopropyl)benzamide], 152 nM; under `CCN1CCN(C[C@H](C(C)C)N2CC(c3cc(-c4ccc(F)cc4C(=O)N(CC)C(C)C)c4cnn(C)c4c3)C2)CC1` [Example 418], 6.3 nM.
Same read-out and setting: under `Cc1nc(F)c2c(-c3ccc(F)cc3C(=O)N3CCOC[C@H]3C)cc(C3CN(C[C@H]4CC[C@H](n5cncn5)CC4)C3)cn12` [Example 253] stands 39 nM; under `CCN(C(=O)c1cc(F)ccc1-c1cc(C2CN([C@@H](CCCN3CCN(C)CC3)C(C)C)C2)cn2c(C)nnc12)C(C)C` [Example 360-2, N-ethyl-5-fluoro-2-(3-methyl-6-{1-[(3S)-2-methyl-6-(4-methylpiperazin-1-yl)hexan-3-yl]azacyclobutan-3-yl}-[1,2,4]triazolo[4,3-a]pyridin-8-yl)-N-(isopropyl)benzamide], 2690 nM; under `CCN(C(=O)c1cc(F)ccc1-c1cc(C2CN([C@@H](C)C3CCN(C(C)=O)CC3)C2)cn2c(C)ncc12)C(C)C` [Example 281-1], 9 nM.
Same read-out and setting: under `Cc1nc(F)c2c(-c3ccc(F)cc3C(=O)N3[C@H](C)COC[C@H]3C)cc(C3CN(CC4(O)CCOCC4)C3)cn12` [Example 220, 4-{[3-(8-{2-[(3R,5R)-3,5-dimethylmorpholin-4-carbonyl]-4-fluorophenyl}-1-fluoro-3-methylimidazo[1,5-a]pyridin-6-yl)azacyclobutan-1-yl]methyl}oxacyclohexan-4-ol] stands 167 nM; under `CCC(=O)N1CCC([C@@H](C)N2CC(c3cc(-c4ccc(F)cc4C(=O)N4CCOC[C@H]4C)c4cnc(C)n4c3)C2)CC1` [Example 319-2, 1-{4-[(1R)-1-[3-(8-{4-fluoro-2-[(3R)-3-methylmorpholin-4-carbonyl]phenyl}-3-methylimidazo[1,5-a]pyridin-6-yl)azacyclobutan-1-yl]ethyl]piperidin-1-yl}propan-1-one], 328 nM.
As for `CCN(C(=O)c1cc(F)ccc1-c1cc(N2CCN(C(=O)[C@H]3N[C@@H]4CC[C@H]3C4)CC2)cn2cncc12)C(C)C` [Compound 40, 2-(6-{4-[(1R,3S,4S)-2-azabicyclo[2.2.1]heptan-3-carbonyl]piperazin-1-yl}imidazo[1,5-a]pyridin-8-yl)-N-ethyl-5-fluoro-N-(isopropyl)benzamide], the IC50 was 83 nM.
The same measure, in the same setting: under `CCN(C(=O)c1cc(F)ccc1-c1cc(C2CN([C@H](C)C3CCN(C(C)=O)CC3)C2)cn2c(C)nc(F)c12)C(C)C` [Example 288-1] stands 11 nM.
On the same count and under the same terms, under `CCN(C(=O)c1cc(F)ccc1-c1cc(C2=CCC(NCc3ccc(-c4cc(OC)c(OC)nn4)cc3)CC2)n2ccncc12)C(C)C` (stereo not shown) [Example 4, 2-{6-[4-({[4-(5,6-dimethoxypyridazin-3-yl)phenyl]methyl}amino)cyclohexyl-1-ene-1-yl]pyrrolo[1,2-a]pyrazin-8-yl}-N-ethyl-5-fluoro-N-isopropylbenzamide] stands 17.5 nM.
Consider `CCN(C(=O)c1cc(F)ccc1-c1cc(C2CN([C@@H](CN3CCS(=O)(=O)CC3)C(C)C)C2)cn2c(C)ncc12)C(C)C` [Example 441-2, 2-(6-{1-[(2R)-1-(1,1-dioxo-thiomorpholin-4-yl)-3-methylbutan-2-yl]azacyclobutan-3-yl}-3-methylimidazo[1,5-a]pyridin-8-yl)-N-ethyl-5-fluoro-N-(isopropyl)benzamide], for which the IC50 was found to be 110 nM.
Still for that read-out and setting: under `CCN(C(=O)c1cc(F)ccc1-c1cc(C2CN([C@H](C)C3CCN(C(=O)CO)CC3)C2)cn2c(C)nc(F)c12)C(C)C` [Example 284-1] stands 39 nM.
Still for that read-out and setting: under `CCN(C(=O)c1cc(F)ccc1-c1cc(C2CCN(C[C@H]3C[C@H](NS(=O)(=O)CC)C3)C2)cn2c(C)ncc12)C(C)C` (stereo partly shown) [Example 102] stands 70.5 nM.
